Literature values, collected in patent US20260258086A1 (priority 2021, published 2026).

Settings: in vivo; cited from earlier work

For `CC[C@H](C)[C@@H]1NC(=O)CNC(=O)[C@@H]2Cc3c([nH]c4cc(O)ccc34)[S@+]([O-])CC(NC(=O)CNC1=O)C(=O)N[C@@H](CC(N)=O)C(=O)N1C[C@H](O)C[C@H]1C(=O)N[C@@H]([C@@H](C)[C@@H](O)CO)C(=O)N2` [α-amanitin], the toxicity is given as 0.05 to 0.1 mg/kg.
